Tested on: range of tumour models
Assay: anti-tumour activity in a range of models
Assay type: in vivo
Conditions: once-daily oral administration

COc1cc2c(Oc3ccc4[nH]c(C)cc4c3F)ncnc2cc1OCCCN1CCCC1 [AZD2171, 4-(4-fluoro-2-methyl-1H-indol-5-yloxy)-6-methoxy-7-(3-(pyrrolidin-1-yl)propoxy)quinazoline]
anti-tumour activity in a range of models: broad-spectrum anti-tumour activity

Source: patent US20110256240A1, “Combination Therapy” (priority 2004, published 2011)
